Literature values, collected in US8889867B2, “Solid forms and process for preparing” (Corcept Therapeutics, Inc., priority 2009, dated 2014).

Key:
[1] = test system: patients with Cushing's syndrome
[2] = target: glucocorticoid receptor (GR) (Homo sapiens, UniProt P04150); details: Bertagna (1984)
glucocorticoid receptor (GR), sequence (P04150 whole entry): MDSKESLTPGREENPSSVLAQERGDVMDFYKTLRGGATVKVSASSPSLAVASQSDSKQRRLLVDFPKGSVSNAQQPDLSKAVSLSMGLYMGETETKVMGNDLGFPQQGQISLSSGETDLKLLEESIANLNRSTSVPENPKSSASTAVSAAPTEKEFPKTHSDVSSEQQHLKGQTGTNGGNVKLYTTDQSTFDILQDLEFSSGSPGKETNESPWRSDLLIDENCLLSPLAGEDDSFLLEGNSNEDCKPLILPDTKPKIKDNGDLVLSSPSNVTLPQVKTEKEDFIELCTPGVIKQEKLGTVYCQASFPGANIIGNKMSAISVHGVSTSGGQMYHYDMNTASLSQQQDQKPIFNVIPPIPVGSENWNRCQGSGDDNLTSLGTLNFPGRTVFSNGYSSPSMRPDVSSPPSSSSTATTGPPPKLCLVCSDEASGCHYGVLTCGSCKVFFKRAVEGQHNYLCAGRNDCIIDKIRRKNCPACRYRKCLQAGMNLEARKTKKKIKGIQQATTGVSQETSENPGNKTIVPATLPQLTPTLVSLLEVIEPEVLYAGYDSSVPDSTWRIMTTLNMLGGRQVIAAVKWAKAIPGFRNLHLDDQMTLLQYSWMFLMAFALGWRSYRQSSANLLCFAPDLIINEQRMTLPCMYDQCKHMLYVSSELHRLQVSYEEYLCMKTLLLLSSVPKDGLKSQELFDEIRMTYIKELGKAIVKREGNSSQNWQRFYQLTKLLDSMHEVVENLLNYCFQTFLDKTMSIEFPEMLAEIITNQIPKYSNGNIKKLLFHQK

In the case of `CC#C[C@]1(O)CC[C@H]2[C@@H]3CCC4=CC(=O)CCC4=C3[C@@H](c3ccc(N(C)C)cc3)C[C@@]21C` [mifepristone], the “reversal of acute psychosis” value ([1]; 400 to 800 mg per day, severe Cushing Syndrome due to adrenal cancers and ectopic ACTH secretion from lung cancer, Van der Lely (1991, 1993)) is listed as “useful in rapidly reversing acute psychosis”, the “patients' conditions, including psychiatric status” value ([1]; Cushing's syndrome patients, Chrousos (1989), Sartor (1996)) is listed as “improved the patients' conditions” and the “anti-glucocorticoid effect in humans” value [2] is listed as “effective anti-glucocorticoid agent”.
